Results reported in paper PMC10568492 (Journal of medicinal chemistry, 2023).
Marks after values point to notes of the source that are not given here.

Experiments:
Oral exposure in mice = format: in vivo, mouse; details: for Plasma drug concentration (mean ± SD): mice, 10 mg/kg oral gavage
AR protein [1] = biological target: T1, AR protein (Homo sapiens, UniProt P10275); assay: Multiplexed quantitative proteomics analysis in VCaP cells; format: cell-based; details: 10 μM, 24 h
T1 sequence (P10275 1-920): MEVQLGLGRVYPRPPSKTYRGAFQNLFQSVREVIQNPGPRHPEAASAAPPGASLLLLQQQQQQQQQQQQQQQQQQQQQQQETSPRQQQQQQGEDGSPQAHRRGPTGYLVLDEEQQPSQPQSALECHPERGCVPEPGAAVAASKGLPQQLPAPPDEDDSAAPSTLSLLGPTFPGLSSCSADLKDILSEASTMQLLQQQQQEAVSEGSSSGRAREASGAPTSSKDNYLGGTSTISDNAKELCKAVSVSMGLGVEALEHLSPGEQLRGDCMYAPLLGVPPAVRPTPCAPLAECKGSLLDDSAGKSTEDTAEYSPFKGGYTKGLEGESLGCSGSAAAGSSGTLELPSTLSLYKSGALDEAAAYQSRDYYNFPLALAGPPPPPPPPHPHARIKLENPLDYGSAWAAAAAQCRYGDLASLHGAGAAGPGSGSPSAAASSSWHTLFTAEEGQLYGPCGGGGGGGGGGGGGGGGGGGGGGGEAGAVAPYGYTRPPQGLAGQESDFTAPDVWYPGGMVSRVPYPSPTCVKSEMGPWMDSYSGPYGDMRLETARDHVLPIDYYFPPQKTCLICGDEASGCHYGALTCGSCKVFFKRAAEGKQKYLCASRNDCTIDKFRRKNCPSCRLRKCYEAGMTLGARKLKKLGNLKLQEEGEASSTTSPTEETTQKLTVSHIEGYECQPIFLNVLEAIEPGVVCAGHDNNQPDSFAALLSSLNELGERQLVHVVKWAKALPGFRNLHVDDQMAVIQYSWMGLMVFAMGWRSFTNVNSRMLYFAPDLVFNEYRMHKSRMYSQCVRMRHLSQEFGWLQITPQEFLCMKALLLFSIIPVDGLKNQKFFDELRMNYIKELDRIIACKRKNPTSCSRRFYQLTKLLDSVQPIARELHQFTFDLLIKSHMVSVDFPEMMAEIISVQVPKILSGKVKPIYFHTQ

AR-LBD protein = biological target: T2, AR-LBD protein (Rattus norvegicus, UniProt P15207); assay: AR fluorescence-polarization; format: binding
T2 sequence (P15207 651-882 limits assumed): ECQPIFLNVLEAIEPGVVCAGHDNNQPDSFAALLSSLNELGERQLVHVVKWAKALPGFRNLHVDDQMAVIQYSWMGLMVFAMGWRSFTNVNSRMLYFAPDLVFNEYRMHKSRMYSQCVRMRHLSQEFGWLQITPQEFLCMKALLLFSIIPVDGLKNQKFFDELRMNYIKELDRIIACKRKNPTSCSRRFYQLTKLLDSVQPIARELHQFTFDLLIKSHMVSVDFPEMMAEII

AR protein [2] = biological target: T1, AR protein; assay: AR protein degradation in VCaP cells, Western blotting; format: cell-based; details: VCaP and LNCaP cell lines
KLK3 (PSA) gene = assay: Suppression of KLK3; format: cell-based, human
PK study in mouse = format: in vivo; details: male, ICR, plasma, po, 5 mg/kg
PK study in rat = format: in vivo; details: male, Sprague-Dawley, plasma, po, 10 mg/kg
PK study in dog = format: in vivo; details: male, beagle, plasma, po, 1 mg/kg
VCaP xenograft tumor = assay: Antitumor activity in VCaP xenograft tumor model in SCID mice; format: in vivo, mouse; details: all doses tested (3.75-25 mg/kg), entire experiment
[3] = male, SCID, mouse, plasma, po, 10 mg/kg

With “2-chloro-4-(8-(4-(4-(4-(2-(2,6-dioxopiperidin-3-yl)-1,3-dioxoisoindolin-5-yl)piperazin-1-yl)piperidin-1-yl)benzoyl)-2,8-diazaspiro[4.5]decan-2-yl)benzonitrile [Compound 20]” the “Plasma drug concentration (mean ± SD)” value (Oral exposure in mice; 1 h) was 82^b ng/ml, the “Plasma drug concentration (mean ± SD)” value (Oral exposure in mice; 3 h) was 57^b ng/ml and the “Plasma drug concentration (mean ± SD)” value (Oral exposure in mice; 6 h) was 91^b ng/ml. The “Plasma drug concentration (mean ± SD)” value (Oral exposure in mice; 24 h) was 3^b ng/ml.
In the case of `C[C@H]1CC2(CCN(c3ccc(C(=O)N4CCN(C)CC4)cc3)CC2)CN1c1ccc(C#N)c(Cl)c1` [ARi-12, (S)-2-chloro-4-(3-methyl-8-(4-(4-methylpiperazine-1-carbonyl)phenyl)-2,8-diazaspiro[4.5]decan-2-yl)benzonitrile], the “effect on protein levels (proteomics)” value (AR protein [1]) is reported as “did not significantly alter the levels of any proteins analyzed”.
With `CN1CCN(c2ccc(C(=O)N3CCC4(CC3)CCN(c3ccc(C#N)c(Cl)c3)C4)cc2)CC1` [Compound 14b] the “times more potent than 14a in AR binding” value (AR-LBD protein; vs 14a) was 2.
For `N#Cc1ccc(N2CCC3(CCN(c4ccccc4)CC3)C2)cc1Cl` [Compound 15a], the IC50 (AR-LBD protein) was > 1000 nM.
Work on `N#Cc1ccc(N2CCC3(CCN(c4ccc(C(=O)N5CCCN(C6CCN(c7ccc8c(c7)C(=O)N(C7CCC(=O)NC7=O)C8=O)CC6)CC5)cc4)CC3)C2)cc1Cl` (stereo not drawn) [Compound 21, 2-chloro-4-(8-(4-(4-(1-(2-(2,6-dioxopiperidin-3-yl)-1,3-dioxoisoindolin-5-yl)piperidin-4-yl)-1,4-diazepane-1-carbonyl)phenyl)-2,8-diazaspiro[4.5]decan-2-yl)benzonitrile] yielded a concentration at 1 h (Oral exposure in mice; [3]) of 46 ± 16 ng/mL, a concentration at 3 h (Oral exposure in mice; [3]) of 8 ± 1 ng/mL and a concentration at 6 h (Oral exposure in mice; [3]) of 11 ± 3 ng/mL.
Compound `N#Cc1ccc(N2CCC3(CCN(c4ccc(C(=O)N5CCN(C6CN(c7ccc8c(c7)C(=O)N(C7CCC(=O)NC7=O)C8=O)C6)CC5)cc4)CC3)C2)cc1Cl` (stereo not drawn) [Compound 27, 2-chloro-4-(8-(4-(4-(1-(2-(2,6-dioxopiperidin-3-yl)-1,3-dioxoisoindolin-5-yl)azetidin-3-yl)piperazine-1-carbonyl)phenyl)-2,8-diazaspiro[4.5]decan-2-yl)benzonitrile] has a concentration at 1 h (Oral exposure in mice; [3]) of 501 ng/mL, a concentration at 3 h (Oral exposure in mice; [3]) of 171 ng/mL and a concentration at 6 h (Oral exposure in mice; [3]) of 246 ng/mL. For the same compound, the concentration at 24 h (Oral exposure in mice; [3]) was 44 ng/mL, the “Plasma drug concentration (mean ± SD)” value (Oral exposure in mice; 1 h, 10 mg/kg) was 501 ± 106 ng/mL and the “Plasma drug concentration (mean ± SD)” value (Oral exposure in mice; 3 h, 10 mg/kg) was 171 ± 83 ng/mL. For the same compound, the “Plasma drug concentration (mean ± SD)” value (Oral exposure in mice; 6 h, 10 mg/kg) was 246 ± 27 ng/mL and the “Plasma drug concentration (mean ± SD)” value (Oral exposure in mice; 24 h, 10 mg/kg) was 44 ± 5 ng/mL.
With `C[C@H]1CC2(CCN(c3ccc(C(=O)N4CCN(C5CN(c6ccc7c(c6)C(=O)N(C6CCC(=O)NC6=O)C7=O)C5)CC4)cc3)CC2)CN1c1ccc(C#N)c(Cl)c1` (stereo partly drawn) [Compound 30, 2-chloro-4-((3S)-8-(4-(4-(1-(2-(2,6-dioxopiperidin-3-yl)-1,3-dioxoisoindolin-5-yl)azetidin-3-yl)piperazine-1-carbonyl)phenyl)-3-methyl-2,8-diazaspiro[4.5]decan-2-yl)benzonitrile] the “times more potent than ARV-110 in inducing AR degradation” value (AR protein [2]) was 6-9, the “times more potent than Enzalutamide in suppressing KLK3 gene expression” value (KLK3 (PSA) gene; VCaP and LNCaP cell lines) was “at least 30” and the “suppression of expression of KLK3 gene” value (KLK3 (PSA) gene; VCaP, 1 nM, 24 h) was 51%. For the same compound, the AUC(0-t) (PK study in mouse) was 11700 ng·h/mL, the Cmax (PK study in mouse) was 1480 ng/mL and the AUC(0-t) (PK study in rat) was 12800 ng·h/mL. For the same compound, the Cmax (PK study in rat) was 1470 ng/mL, the AUC (PK study in dog) was 1820 ng·h/mL and the signs of toxicity (VCaP xenograft tumor) was “no signs of toxicity”.
